Data on 32 compounds can be found in patent US11203600B2 (Denali Therapeutics Inc., priority 2017, dated 2021).

The target in the experiment is GST-hRIPK1 (8-327) (Homo sapiens (Human), UniProt Q13546). As to the kind of experiment: Fluorescent Polarization Binding (FP Binding) assay, RIPK1. To be noted: GST-hRIPK1 (8-327), mean of at least two independent experiments. The method, boiled down:
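Binding by fluorescence polarisation at RT: 10 nM baculovirus-expressed GST-hRIPK1 (8-327) and 5 nM fluorescent ligand, 30 min, in 50 mM HEPES pH 7.5, 50 mM MgCl2, 0.02% CHAPS, 1% DMSO. FP read at ex 531/em 595 nm. IC50 from normalised percent inhibition, mean of ≥2 experiments.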

Sequence of GST-hRIPK1 (8-327) (Q13546 8-327): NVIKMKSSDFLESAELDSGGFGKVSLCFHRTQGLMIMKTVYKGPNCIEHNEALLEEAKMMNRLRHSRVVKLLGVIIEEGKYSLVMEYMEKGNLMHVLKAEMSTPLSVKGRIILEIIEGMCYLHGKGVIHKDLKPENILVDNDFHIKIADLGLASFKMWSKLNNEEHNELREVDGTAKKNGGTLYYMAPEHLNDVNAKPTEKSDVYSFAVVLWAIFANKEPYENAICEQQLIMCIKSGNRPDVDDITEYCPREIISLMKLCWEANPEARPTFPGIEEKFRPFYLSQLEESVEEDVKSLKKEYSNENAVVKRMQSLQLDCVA

`CC1(C(=O)N2CCOc3c(C#N)cncc3C2)CCN(c2ncc(Cl)cn2)CC1(F)F` (centres unmarked) [Example 215, 4-(1-(5-chloropyrimidin-2-yl)-3,3-difluoro-4-methylpiperidine-4-carbonyl)-2,3,4,5-tetrahydropyrido[3,4-f][1,4]oxazepine-9-carbonitrile] registered an IC50 of 0.0001 to 0.1 µM. Consider `CC1(C(=O)N2CCOc3c(C#N)cncc3C2)CCN(c2ncc(F)c(=O)[nH]2)CC1(F)F` (centres unmarked) [Example 216, 4-[3,3-difluoro-1-(5-fluoro-6-oxo-1H-pyrimidin-2-yl)-4-methyl-piperidine-4-carbonyl]-3,5-dihydro-2H-pyrido[3,4-f][1,4]oxazepine-9-carbonitrile], for which the concentration for half-maximal inhibition (IC50) was in the range of 0.1 to 1 µM. Next, `COCCOc1nc(N2CCC(C)(C(=O)N3CCOc4c(C#N)cncc4C3)C(F)(F)C2)ncc1F` (centres unmarked) [Example 217, 4-[3,3-difluoro-1-[5-fluoro-4-(2-methoxyethoxy)pyrimidin-2-yl]-4-methyl-piperidine-4-carbonyl]-3,5-dihydro-2H-pyrido[3,4-f][1,4]oxazepine-9-carbonitrile]: 0.0001 to 0.1 µM; `N#Cc1cncc2c1OCCN(C(=O)C1CCN(c3ncnn4ccnc34)CC1(F)F)C2` (centres unmarked) [Example 218, 4-(3,3-difluoro-1-imidazo[2,1-f][1,2,41triazin-4-yl-piperidine-4-carbonyl)-3,5-dihydro-2H-pyrido[3,4-f][1,4]oxazepine-9-carbonitrile)]: 0.1 to 1 µM; `N#Cc1cncc2c1OCCN(C(=O)C1CCN(c3nccn4ncnc34)CC1(F)F)C2` (centres unmarked) [Example 219, 4-[3,3-difluoro-1-([1,2,4]triazolo[1,5-a]pyrazin-8-yl)piperidine-4-carbonyl]-3,5-dihydro-2H-pyrido[3,4-f][1,4]oxazepine-9-carbonitrile]: 0.1 to 1 µM. Consider `N#Cc1cncc2c1OCCN(C(=O)C1CCN(c3ncnc4ccnn34)CC1(F)F)C2` (centres unmarked) [Example 220], for which the IC50 fell in the range of 0.1 to 1 µM. Compound `N#Cc1cncc2c1OCCN(C(=O)C1CCN(c3ccnc4ccnn34)CC1(F)F)C2` (centres unmarked) [Example 221, 4-(3,3-difluoro-1-pyrazolo[1,5-a]pyrimidin-7-yl-piperidine-4-carbonyl)-3,5-dihydro-2H-pyrido[3,4-f][1,4]oxazepine-9-carbonitrile] registered an IC50 of 0.1 to 1 µM. As for `CC1(C(=O)N2CCOc3c(C#N)cncc3C2)CCN(c2nccn3ncnc23)CC1(F)F` (centres unmarked) [Example 222, 4-[3,3-difluoro-4-methyl-1-([1,2,4]triazolo[1,5-a]pyrazin-8-yl)piperidine-4-carbonyl]-3,5-dihydro-2H-pyrido[3,4-f][1,4]oxazepine-9-carbonitrile], the IC50 lay in the range of 0.0001 to 0.1 µM. The figure for `Cn1nccc(N2CCC(C(=O)N3CCOc4c(C#N)cncc4C3)[C@@H](F)C2)c1=O` (stereo partly drawn) [Example 224, 4-[(3,4)-trans-3-fluoro-1-(2-methyl-3-oxo-pyridazin-4-yl)piperidine-4-carbonyl]-3,5-dihydro-2H-pyrido[3,4-f][1,4]oxazepine-9-carbonitrile] is over 1 µM; for `N#Cc1cncc2c1OCCN(C(=O)C1CCN(c3nccn4ncnc34)C[C@@H]1F)C2` (stereo partly drawn) [Example 225, 4-[(3,4)-trans-3-fluoro-1-([1,2,4]triazolo[1,5-a]pyrazin-8-yl)piperidine-4-carbonyl]-3,5-dihydro-2H-pyrido[3,4-f][1,4]oxazepine-9-carbonitrile] it is 0.0001 to 0.1 µM; for `N#Cc1cncc2c1OCCN(C(=O)C1CCN(c3ccnc4c(F)cnn34)C[C@@H]1F)C2` (stereo partly drawn) [Example 226, 4-[(3,4)-trans-3-fluoro-1-(3-fluoropyrazolo[1,5-a]pyrimidin-7-yl)piperidine-4-carbonyl]-3,5-dihydro-2H-pyrido[3,4-f][1,4]oxazepine-9-carbonitrile] it is 0.0001 to 0.1 µM.

On to `N#Cc1cncc2c1OCCN(C(=O)C1CCN(c3ccnc4c(Cl)cnn34)C[C@@H]1F)C2` (stereo partly drawn) [Example 227, 4-[1-(3-chloropyrazolo[1,5-a]pyrimidin-7-yl)-(3,4)-trans-3-fluoro-piperidine-4-carbonyl]-3,5-dihydro-2H-pyrido[3,4-f][1,4]oxazepine-9-carbonitrile], for which the IC50 was in the range of 0.0001 to 0.1 µM.

In turn, `N#Cc1cncc2c1OCCN(C(=O)C1CCN(c3ccnc4c(F)cnn34)CC1)C2` [Example 228, 4-[1-(3-fluoropyrazolo[1,5-a]pyrimidin-7-yl)piperidine-4-carbonyl]-3,5-dihydro-2H-pyrido[3,4-f][1,4]oxazepine-9-carbonitrile] returned an IC50 of 0.0001 to 0.1 µM. The figure for `N#Cc1cncc2c1OCCN(C(=O)C1CCN(c3ccnc4c(Cl)cnn34)CC1)C2` [Example 229, 4-[1-(3-chloropyrazolo[1,5-a]pyrimidin-7-yl)piperidine-4-carbonyl]-3,5-dihydro-2H-pyrido[3,4-f][1,4]oxazepine-9-carbonitrile] is 0.0001 to 0.1 µM. `N#Cc1cncc2c1OCC1(CC1)N(C(=O)C1CCN(c3ncc(F)cn3)CC1)C2` [Example 230, 4-[1-(5-fluoropyrimidin-2-yl)piperidine-4-carbonyl]spiro[2,5-dihydropyrido[3,4-f][1,4]oxazepine-3,1′-cyclopropane]-9-carbonitrile] registered an IC50 of 0.1 to 1 µM. On to `N#Cc1cncc2c1OCCN(C(=O)C1CCN(c3ncc(F)cn3)CCO1)C2` (centres unmarked) [Example 231, 4-[4-(5-fluoropyrimidin-2-yl)-1,4-oxazepane-7-carbonyl]-3,5-dihydro-2H-pyrido[3,4-f][1,4]oxazepine-9-carbonitrile], for which the IC50 is over 1 µM. `COc1cc(C(F)(F)F)nc(N2CCC(F)(C(=O)N3CCOc4c(C#N)cncc4C3)CC2)n1` [Example 232, 4-[4-fluoro-1-[4-methoxy-6-(trifluoromethyl)pyrimidin-2-yl]piperidine-4-carbonyl]-3,5-dihydro-2H-pyrido[3,4-f][1,4]oxazepine-9-carbonitrile]: the IC50 fell in the range of 0.1 to 1 µM. As for `COC1(C(=O)N2CCOc3c(C#N)cncc3C2)CCN(c2ncc(F)c(C3CC3)n2)CC1` [Example 233, 4-[1-(4-cyclopropyl-5-fluoro-pyrimidin-2-yl)-4-methoxy-piperidine-4-carbonyl]-3,5-dihydro-2H-pyrido[3,4-f][1,4]oxazepine-9-carbonitrile], the concentration for half-maximal inhibition (IC50) was in the range of 0.0001 to 0.1 µM.

`COC1(C(=O)N2CCOc3ccncc3C2)CCN(c2ncc(F)cn2)CC1` [Example 234, 3,5-dihydro-2H-pyrido[3,4-f][1,4]oxazepin-4-yl-[1-(5-fluoropyrimidin-2-yl)-4-methoxy-4-piperidyl]methanone] had a half-inhibitory concentration (IC50) of 0.0001 to 0.1 µM.

On to `COc1nc(N2CCC(OC)(C(=O)N3CCOc4ccncc4C3)CC2)ncc1F` [Example 235, 3,5-dihydro-2H-pyrido[3,4-f][1,4]oxazepin-4-yl-[1-(5-fluoro-4-methoxy-pyrimidin-2-yl)-4-methoxy-4-piperidyl]methanone], for which the IC50 is 0.0001 to 0.1 µM.

For the compound `COc1nc(N2CCC(C(=O)N3CCOc4c(F)cncc4C3)CC2)ncc1F` [Example 236], the IC50 lay in the range of 0.0001 to 0.1 µM. The compound `COc1nc(N2CCC(C(=O)N3CCCc4ccccc4C3)CC2)ncc1F` [Example 237, [1-(5-fluoro-4-methoxy-pyrimidin-2-yl)-4-piperidyl]-(1,3,4,5-tetrahydro-2-benzazepin-2-yl)methanone] showed an IC50 of 0.0001 to 0.1 µM. In the case of `COc1nc(N2CCC(C(=O)N3CCOc4ccncc4C3)CC2)ncc1F` [Example 238], the IC50 lay within 0.0001 to 0.1 µM. Compound `COC1(C(=O)N2CCOc3c(C#N)cncc3C2)CCN(c2ncccn2)CC1` [Example 239, 4-(4-methoxy-1-pyrimidin-2-yl-piperidine-4-carbonyl)-3,5-dihydro-2H-pyrido[3,4-f][1,4]oxazepine-9-carbonitrile] returned an IC50 of 0.0001 to 0.1 µM.

`CC1(C(=O)N2CCOc3c(C#N)cncc3C2)CCCCO1` (centres unmarked) [Example 240, 4-(2-methyltetrahydropyran-2-carbonyl)-3,5-dihydro-2H-pyrido[3,4-f][1,4]oxazepine-9-carbonitrile] displayed a half-maximal inhibitory concentration (IC50) of 0.1 to 1 µM.

`N#Cc1cncc2c1OCCN(C(=O)C1CCN(c3ncc(F)cn3)C[C@@H]1F)C2` (stereo partly drawn) [Example 241, 4-[(3,4)-cis-3-fluoro-1-(5-fluoropyrimidin-2-yl)piperidine-4-carbonyl]-3,5-dihydro-2H-pyrido[3,4-f][1,4]oxazepine-9-carbonitrile] came in with a concentration for half-maximal inhibition (IC50) of 0.1 to 1 µM. Next, `N#Cc1cncc2c1OCCN(C(=O)C1CCN(c3ncc(F)cn3)C[C@@H]1F)C2` (stereo partly drawn) [Example 242, 4-[(3,4)-trans-3-fluoro-1-(5-fluoropyrimidin-2-yl)piperidine-4-carbonyl]-3,5-dihydro-2H-pyrido[3,4-f][1,4]oxazepine-9-carbonitrile]: 0.0001 to 0.1 µM.

`N#Cc1cncc2c1OCCN(C(=O)C1CCN(c3ncc(F)cn3)CC1(F)F)C2` (centres unmarked) [Example 243, 4-[3,3-difluoro-1-(5-fluoropyrimidin-2-yl)piperidine-4-carbonyl]-3,5-dihydro-2H-pyrido[3,4-f][1,4]oxazepine-9-carbonitrile] showed an IC50 of 0.1 to 1 µM. `N#Cc1cncc2c1OCCN(C(=O)C1=CCN(c3ncc(F)cn3)CC1)C2` [Example 245, 4-[1-(5-fluoropyrimidin-2-yl)-3,6-dihydro-2H-pyridine-4-carbonyl]-3,5-dihydro-2H-pyrido[3,4-f][1,4]oxazepine-9-carbonitrile] came in with an IC50 of 0.1 to 1 µM. `N#Cc1cncc2c1OCCN(C(=O)C1CCN(c3nccc4ncnn34)CC1(F)F)C2` (centres unmarked) [Example 246, 4-[3,3-difluoro-1-([1,2,4]triazolo[1,5-c]pyrimidin-5-yl)piperidine-4-carbonyl]-3,5-dihydro-2H-pyrido[3,4-f][1,4]oxazepine-9-carbonitrile] yielded an IC50 of 0.1 to 1 µM. In the case of `O=C(C1CCN(c2ncc(F)cn2)C[C@@H]1F)N1CCOc2c(F)cncc2C1` (some centres unmarked) [Example 247], the half-inhibitory concentration (IC50) is 0.0001 to 0.1 µM. The figure for `O=C(C1=CCN(c2ncc(F)cn2)CC1)N1CCOc2c(F)cncc2C1` [Example 248] is 0.1 to 1 µM.
